From the NIST ThermoML archive (doi:10.1016/j.jct.2013.08.013)

Legend:
[1] = 101 kPa, Liquid; for speed of sound: Frequency=2 MHz, Linear variable-path acoustic interferometer; for mass density: Vibrating tube method
[2] = xn = mol fraction of the nth substance listed; conditions: 101 kPa, Liquid; for speed of sound: Frequency=2 MHz, Linear variable-path acoustic interferometer; for mass density: Vibrating tube method

Cc1ccccc1Cl [2-chlorotoluene]
[1]
Conditions	mass density [kg/m3]	speed of sound [m/s]
298.15 K	1077.38	1299.8
303.15 K	1072.8	1283.6
308.15 K	1068.21	1265.6

Cc1ccccc1Cl [2-chlorotoluene] + CCCCCCCO
[2]
Conditions	mass density, 298.15 K [kg/m3]	mass density, 303.15 K [kg/m3]	mass density, 308.15 K [kg/m3]	speed of sound, 298.15 K [m/s]	speed of sound, 303.15 K [m/s]	speed of sound, 308.15 K [m/s]
x1 = 0.0984	840.51	836.79	833.05	1324.4	1311	1289.7
x1 = 0.1921	861.75	857.88	853.98	1320.1	1306	1284
x1 = 0.2969	886.24	882.16	878.15	1313.6	1298.6	1276.2
x1 = 0.3983	910.69	906.43	902.26	1306.5	1290.7	1268.5
x1 = 0.4949	934.8	930.38	926.11	1299.3	1283.1	1260.9
x1 = 0.5961	960.97	956.41	952.02	1293.5	1276.2	1254.8
x1 = 0.7028	989.68	985.06	980.6	1289.2	1271.5	1250.4
x1 = 0.7968	1016.16	1011.5	1006.94	1287.7	1270.3	1249.7
x1 = 0.8993	1046.27	1041.59	1036.99	1289.1	1273.5	1254.3
x1 = 1	1077.38	1072.8	1068.21	1299.8	1283.6	1265.6

Cc1ccccc1Cl [2-chlorotoluene] + CCCCCCO
[2]
Conditions	mass density, 298.15 K [kg/m3]	mass density, 303.15 K [kg/m3]	mass density, 308.15 K [kg/m3]	speed of sound, 298.15 K [m/s]	speed of sound, 303.15 K [m/s]	speed of sound, 308.15 K [m/s]
x1 = 0.0974	839.69	835.89	832.09	1304.1	1287	1268.7
x1 = 0.1968	864.67	860.71	856.77	1302	1284.3	1266
x1 = 0.3046	892	887.87	883.78	1298.3	1280.2	1260.7
x1 = 0.3967	915.57	911.34	907.1	1294.3	1275.7	1255.7
x1 = 0.489	939.38	934.99	930.68	1290.1	1271.1	1250.9
x1 = 0.5955	967.24	962.7	958.3	1286.1	1266.2	1246.3
x1 = 0.6902	992.34	987.72	983.26	1283.6	1264.1	1244.4
x1 = 0.8086	1024.27	1019.61	1015.04	1284.7	1265.4	1246.2
x1 = 0.8949	1047.98	1043.25	1038.71	1289.1	1270.5	1250
x1 = 1	1077.38	1072.8	1068.21	1299.8	1283.6	1265.6

Cc1ccccc1Cl [2-chlorotoluene] + CCCCCO
[2]
Conditions	mass density, 298.15 K [kg/m3]	mass density, 303.15 K [kg/m3]	mass density, 308.15 K [kg/m3]	speed of sound, 298.15 K [m/s]	speed of sound, 303.15 K [m/s]	speed of sound, 308.15 K [m/s]
x1 = 0.0964	838.77	834.85	830.94	1280.2	1263	1250
x1 = 0.189	865.02	860.96	856.9	1282.2	1264	1250.2
x1 = 0.294	894.17	889.95	885.73	1281.9	1262.5	1247.7
x1 = 0.388	919.71	915.37	911.06	1280.9	1260.7	1244.5
x1 = 0.4962	948.58	944.07	939.74	1279	1258.1	1240.9
x1 = 0.5892	972.97	968.37	963.98	1277.5	1255.8	1238.3
x1 = 0.697	1000.83	996.18	991.75	1278	1256.1	1238
x1 = 0.8057	1028.54	1023.88	1019.37	1281	1260.1	1242.2
x1 = 0.8949	1051.02	1046.43	1041.83	1287	1267.2	1250
x1 = 1	1077.38	1072.8	1068.21	1299.8	1283.6	1265.6
